Reference: paper PMC3880221 (Chembiochem : a European journal of chemical biology, 2011)

Assays:
NQO1 (QR1) = NQO1 (QR1) (Homo sapiens, UniProt P15559); experiment: recombinant human NQO1 activity after treatment with […] compound ± NADH; type: biochemical
[1] = molecular target: T1, NRH:quinone oxidoreductase 2 (NQO2, QR2) (Homo sapiens, UniProt P16083); experiment: co-crystal structure; type: binding
T1 sequence (P16083 1-231): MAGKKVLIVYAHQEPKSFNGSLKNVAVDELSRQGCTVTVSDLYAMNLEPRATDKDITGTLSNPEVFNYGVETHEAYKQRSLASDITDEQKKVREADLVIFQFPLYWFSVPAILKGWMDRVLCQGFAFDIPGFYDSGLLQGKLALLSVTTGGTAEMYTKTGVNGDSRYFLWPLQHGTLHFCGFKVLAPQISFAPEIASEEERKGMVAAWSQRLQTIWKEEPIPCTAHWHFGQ

NQO1 (QR1), sequence (P15559 whole entry): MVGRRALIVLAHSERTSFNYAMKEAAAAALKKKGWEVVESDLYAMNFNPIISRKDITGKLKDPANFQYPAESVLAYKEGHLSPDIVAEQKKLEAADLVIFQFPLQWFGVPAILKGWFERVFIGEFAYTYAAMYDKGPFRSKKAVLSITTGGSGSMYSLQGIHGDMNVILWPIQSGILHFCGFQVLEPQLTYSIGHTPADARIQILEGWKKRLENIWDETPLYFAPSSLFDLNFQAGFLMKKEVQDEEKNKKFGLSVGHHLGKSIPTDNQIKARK

| SMILES | partition ratio (NQO1 (QR1)) | Kd [1] |
| --- | --- | --- |
| COC1=CC(=O)c2c(c(COc3ccc([N+](=O)[O-])cc3)c(C)n2C)C1=O [1a, 5-methoxy-1,2-dimethyl-3-(4-nitrophenoxymethyl)indole-4,7-dione] | 3.5 (partition ratio) | – |
| Cc1c(COc2ccc([N+](=O)[O-])cc2)c2c(n1C)C(=O)C=C(NCCCCN)C2=O [2c, 5-(4-Aminobutyl)amino-1,2-dimethyl-3-(4-nitrophenoxy)methylindole-4,7-dione] | – | Kd1 = 71; Kd2 = 19 μM |
